Counter-ions that a name gives are not always drawn.

The test has as its system swine adipose tissue. Kind of test: Inhibition of lipogenesis (lipid synthesis from glucose-U-14C) in swine adipose tissue slices. The format is cell-based. The following applies: Sus scrofa, 100 micrograms per milliliter, 37° C., 2 hours, glucose-U14C, insulin, 5% DMSO, triplicate, read-out: Percent Inhibition (of lipogenesis compared to control). The source says:
The manner in which they cause this effect is not known with certainty; it is believed that they interfere with the synthesis of fatty acids in the tissue. Their effectiveness for this purpose has been ascertained by immersing samples of swine adipose tissue in a liquid medium containing radioactive glucose and the test chemical for a period of time, then isolating the lipid from the treated tissue and determining the up-take of the radioactive carbon by means of scintillation counting techniques. These tests were conducted in swine adipose tissue because in swine the primary site of lipogenesis--i.e., fatty acid synthesis--appearsto be adipose tissue. […] 150 milligrams of slices of swine adipose tissue were incubated at 37° C. for 2 hours with shaking in 3 milliliters of Krebs-Ringer bicarbonate solution containing one-half the normal calcium ion concentration, 60 micromoles of glucose, 0.5 microCurie of glucose-U^14 C, and 300 microunits of insulin, and 5% dimethyl sulfoxide (DMSO). The test compounds were added as a solution or suspension in DMSO and were present at a concentration of 100 micrograms per milliliter of the incubation mixture. The incubation was terminated by addition of 0.25 milliliter of 1 N sulfuric acid. The resulting mixture was extracted with a total of 25 milliliters of chloroform:methanol (2:1, v/v). The extracts were washed according to Folch et al. (J. Biol. […] The tests were conducted in triplicate and were accompanied by control tests in which all ingredients,proportions and conditions were the same except that no test compound was included. From the data obtained were calculated the percent inhibition of lipid synthesis by the test compound in each case. The data obtained from the tests were set out in Table I, as the percent inhibition of lipogenesis compared to the results obtained in the control tests wherein only the test compound was omitted.
By inhibition is commonly meant the relative decrease from the control value, in per cent. On to `CCOC(=O)C1CNc2ccc(C)cc2O1` (stereo not drawn) [Compound 10, ethyl 7-methyl-3,4-dihydro-2H-1,4-benzoxazine-2-carboxylate], for which the inhibition at 100 µg/mL worked out at 54%.

On to `CCOC(=O)C1CNc2ccc([N+](=O)[O-])cc2O1` (stereo not drawn) [Compound 14, ethyl 7-nitro-3,4-dihydro-2H-1,4-benzoxazine-2-carboxylate], for which the inhibition at 100 µg/mL is 92%.

Turning to `CCOC(=O)C1CNc2ccccc2O1` (stereo not drawn) [Compound 1A, 3,4-dihydro-2H-1,4-benzoxazine-2-carboxylic acid ethyl ester hydrochloride], the inhibition at 100 µg/mL was determined as 62%.

Take `CCOC(=O)C1CNc2cc(OC)ccc2O1` (stereo not drawn) [Compound 8, ethyl 6-methoxy-2,3-dihydro-2H-1,4-benzoxazine-2-carboxylate]: the inhibition at 100 µg/mL was found to be 81%.

Regarding `CCOC(=O)C1CN(Cc2ccccc2)c2ccccc2O1` (stereo not drawn) [Compound 1, Ethyl 3,4-dihydro-4-benzyl-2H-1,4-benzoxazine-2-carboxylate], the inhibition at 100 µg/mL worked out at 53%.

Turning to `CCOC(=O)C1CNc2cc(NS(C)(=O)=O)ccc2O1` (stereo not drawn) [Compound 6, ethyl 3,4-dihydro-6-((methylsulfonyl)amino)-2H-1,4-benzoxazine-2-carboxylate], the inhibition at 100 µg/mL was found to be 76%.

`CCOC(=O)C1CNc2cc(-c3ccccc3)ccc2O1` (stereo not drawn) [Compound 13, ethyl 6-phenyl-3,4-dihydro-2H-1,4-benzoxazine-2-carboxylate]: the inhibition at 100 µg/mL was found to be 34%.

As for `CCOC(=O)C1CNc2cc([N+](=O)[O-])ccc2O1` (stereo not drawn) [Compound 4, ethyl 6-nitro-3,4-dihydro-2H-1,4-benzoxazine-2-carboxylate], the inhibition at 100 µg/mL was determined as 74%.

Take `CCOC(=O)C1CNc2cccc(Cl)c2O1` (stereo not drawn) [Compound 12, ethyl 8-chloro-3,4-dihydro-2H-1,4-benzoxazine-2-carboxylate]: the inhibition at 100 µg/mL was 39%.

Take `CCOC(=O)C1CNc2cc(N)ccc2O1` (stereo not drawn) [Compound 5, ethyl 6-amino-3,4-dihydro-2H-1,4-benzoxazine-2-carboxylate hydrochloride]: the inhibition at 100 µg/mL was found to be 43%.

For the molecule `CCOC(=O)C1CNc2cc([N+](=O)[O-])cc(Cl)c2O1` (stereo not drawn) [Compound 11, ethyl 8-chloro-6-nitro-3,4-dihydro-2H-1,4-benzoxazine-2-carboxylate], the inhibition at 100 µg/mL is 31%.

`CCOC(=O)C1CNc2cc(Cl)ccc2O1` (stereo not drawn) [Compound 2, Ethyl 6-chloro-3,4-dihydro-2H-1,4-benzoxazine-2-carboxylate]: the inhibition at 100 µg/mL is 28%.

As for `CCOC(=O)C1CNc2cc(C)ccc2O1` (stereo not drawn) [Compound 3, Ethyl 6-methyl-3,4-dihydro-2H-1,4-benzoxazine-2-carboxylate hydrochloride], the inhibition at 100 µg/mL is 18%.

For `CCOC(=O)C1CNc2cc(C(F)(F)F)ccc2O1` (stereo not drawn) [Compound 7, ethyl 6-(trifluoromethyl)-3,4-dihydro-2H-1,4-benzoxazine-2-carboxylate], the inhibition at 100 µg/mL was found to be 31%.

Turning to `CCOC(=O)C1CNc2cc(Cl)c(Cl)cc2O1` (stereo not drawn) [Compound 9, ethyl 6,7-dichloro-2,3-dihydro-2H-1,4-benzoxazine-2-carboxylate], the inhibition at 100 µg/mL was 56%.

The record behind these values is patent publication US4180572A, “Lipogenesis control by esters of benzoxazinecarboxylic acids” (Shell Oil Company, priority 1978, dated 1979).
